In US6034236A, “Method for producing of phthalocyanine compound” (Nippon Shokubai Co., Ltd., priority 1997, dated 2000):

How the values were obtained:
[1] = Visible absorption spectrum (largest absorption wavelength, ε); assay type: physicochemical
[2] = Solubility in 2-ethoxyethanol

Compound | Visible absorption spectrum, Thin film [1] [nm] | Largest absorption wavelength in 2-ethoxyethanol [1] [nm] | ε at largest absorption wavelength in 2-ethoxyethanol [1] | other results
tetrakis(2-(2-methoxyethoxy)carbonyl-6-phenylphenoxy)dodecafluorovanadyl phthalocyanine [Example 3] | 730.6 | 713.7 | 1.42 × 10^5 | 
[O]=[Ti+2].c1ccc2c(c1)-c1nc-2nc2[n-]c(nc3nc(nc4[n-]c(n1)c1ccccc41)-c1ccccc1-3)c1ccccc21 [Example 13, titanylphthalocyanine] |  |  |  | Largest absorption wavelength in 1-chloronaphthalene [1]: 710.5 nm; ε at largest absorption wavelength in 1-chloronaphthalene [1]: 1.33 × 10^5
octaphenoxyoctafluorovanadyl phthalo-cyanine [Example 11] |  |  |  | Largest absorption wavelength in acetone ([1]; in acetone): 720 nm
tetrakis(2-(2-propoxy)carbonyl-6-phenylphenoxy)dodecafluorovanadyl phthalocyanine [Example 1] | 732.2 | 715.0 | 1.52 × 10^5 | 
tetrakis(2-(1,3-dibromo-2-propoxy)-carbonyl-6-phenylphenoxy)dodecafluorovanadyl phthalocyanine [Example 2] | 731.6 | 714.5 | 1.75 × 10^5 | 
tetrakis(2-(2-ethoxyethoxy)carbonyl-6-methoxyphenoxy)dodecafluorovanadyl phthalocyanine [Example 6] | 733.0 | 715.2 | 1.37 × 10^5 | Solubility in 2-ethoxyethanol [2]: 13 wt. %
Fc1c(F)c(F)c2c(c1F)-c1nc-2nc2[n-]c(nc3nc(nc4[n-]c(n1)c1c(F)c(F)c(F)c(F)c41)-c1c(F)c(F)c(F)c(F)c1-3)c1c(F)c(F)c(F)c(F)c21.[O]=[V+2] [Example 7, hexadecafluorovanadyl phthalocyanine] |  |  |  | Largest absorption wavelength in 1-chloronaphthalene [1]: 710.2 nm; ε at largest absorption wavelength in 1-chloronaphthalene [1]: 1.89 × 10^5; Largest absorption wavelength in 1-chloronaphthalene ([1]; listed as Example 8): 710.1 nm; ε at largest absorption wavelength in 1-chloronaphthalene ([1]; listed as Example 8): 1.77 × 10^5
octakisphenylthiooctafluorovanadyl phthalocyanine [Example 10] |  |  |  | Largest absorption wavelength in toluene ([1]; in toluene): 770 nm
tetrakis(2-(2-methoxyethoxy)carbonyl-6-methylphenoxy)dodecafluorovanadyl phthalocyanine [Example 5] | 732.8 | 710.4 | 1.32 × 10^5 | 
Clc1c(Cl)c(Cl)c2c(c1Cl)-c1nc-2nc2[n-]c(nc3nc(nc4[n-]c(n1)c1c(Cl)c(Cl)c(Cl)c(Cl)c41)-c1c(Cl)c(Cl)c(Cl)c(Cl)c1-3)c1c(Cl)c(Cl)c(Cl)c(Cl)c21.[O]=[V+2] [Example 12, hexadecachlorovanadylphthalocyanine] |  |  |  | Largest absorption wavelength in 1-chloronaphthalene [1]: 712.4 nm; ε at largest absorption wavelength in 1-chloronaphthalene [1]: 1.65 × 10^5
tetrakis(2-(2-tetrahydrofurfuryloxy)-carbonyl-6-phenylphenoxy)dodecafluorovanadyl phthalocyanine [Example 4] | 732.3 | 714.7 | 1.22 × 10^5 | 

Further lines, with some results ahead:

Visible absorption spectrum, Thin film [1] [nm] | Largest absorption wavelength in 2-ethoxyethanol [1] [nm] | ε at largest absorption wavelength in 2-ethoxyethanol [1] | Compound | other results
 | 709.0 | 1.26 × 10^5 | tetrakis(2-(2-ethoxyethoxy) dodecafluorovanadyl phthalocyanine [Example 14] | 
732.0 | 712.5 | 1.10 × 10^5 | tetrakis(2-(2-methoxyethoxy)carbonyl-6-methylphenoxy)dodecachlorovanadyl phthalocyanine [Example 9] | 
